From US11566007B2, “Ras inhibitors” (Revolution Medicines, Inc., priority 2019, dated 2023)
Values joined by “and” are separate entries in the source; they are usually repeats but may differ in a detail not shown here. Identical values can stand only once.

Key:
[1] = biological target: KRAS G12D (Homo sapiens (Human), UniProt P01116+P62937, G12D); test: Ras-Raf (BRAF RBD) disruption / FRET / MOA assay, KRAS G12D; format: biochemical; conditions: Ras-Raf disruption/FRET/MOA assay; class symbols; read-out: KRAS G12D FRET data IC50
Method in brief: (§1)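 A 10-point, 3-fold dilution series topping at 30 μM final was incubated 3 h at 25° C with the Ras/cyclophilin A/BRAF RBD mixture.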

[2] = biological target: KRAS WT (Homo sapiens (Human), UniProt P01116+P62937); test: Ras-Raf (BRAF RBD) disruption / FRET / MOA assay, KRAS WT; format: biochemical; conditions: read-out: IC50* KRAS WT FRET data
Description: (§2) The purpose of this biochemical assay is to measure the ability of test compounds to facilitate ternary complex formation between a nucleotide-loaded Ras isoform and cyclophilin A; the resulting ternary complex disrupts binding to a BRAF^RBD construct, inhibiting Ras signaling through a RAF effector.
(§3) Compound is present in plate wells as a 10-point 3-fold dilution series starting at a final concentration of 30 μM. After incubation at 25° C. for 3 hours, a mixture of Anti-His Eu-W1024 and anti-GST allophycocyanin is then added to assay sample wells at final concentrations of 10 nM and 50 nM, respectively, and the reaction incubated for an additional 1.5 hours. […] Compounds that facilitate disruption of a Ras:RAF complex are identified as those eliciting a decrease in the TR-FRET ratio relative to DMSO control wells.
(§4) This protocol may also be executed substituting other Ras proteins or nucleotides.
(§5) The purpose of this biochemical assay was to measure the ability of test compounds to facilitate ternary complex formation between a nucleotide-loaded K-Ras isoform and Cyclophilin A; the resulting ternary complex disrupts binding to a BRAF^RBD construct, inhibiting K-Ras signaling through a RAF effector. Data is reported as IC50 values.
as §3, with “Compound was” for “Compound is”, “allophycocyanin was” for “allophycocyanin is”, “a K-Ras:RAF” for “a Ras:RAF”, “complex were” for “complex are”

[3] = biological target: KRAS G12V (Homo sapiens (Human), UniProt P01116+P62937, G12V); test: Ras-Raf (BRAF RBD) disruption / FRET / MOA assay, KRAS G12V; format: biochemical; conditions: read-out: IC50* KRAS G12V FRET data
Description: as §2, §3, §4, §5
as §3, with “Compound was” for “Compound is”, “allophycocyanin was” for “allophycocyanin is”, “a K-Ras:RAF” for “a Ras:RAF”, “complex were” for “complex are”

[4] = biological target: K-Ras G13C (Homo sapiens (Human), UniProt P01116+P62937, G13C); test: Ras-Raf (BRAF RBD) disruption / FRET / MOA assay, KRAS G13C; format: biochemical; conditions: KRAS G13C; Ras-Raf disruption/FRET/MOA assay; read-out: IC50* KRAS G13C FRET data
Description: as §2, §3, §4, §5
as §3, with “Compound was” for “Compound is”, “allophycocyanin was” for “allophycocyanin is”, “a K-Ras:RAF” for “a Ras:RAF”, “complex were” for “complex are”

[5] = biological target: KRAS G12S (Homo sapiens (Human), UniProt P01116+P62937, G12S); test: Ras-Raf (BRAF RBD) disruption / FRET / MOA assay, KRAS G12S; format: biochemical; conditions: Ras-Raf disruption/FRET/MOA assay; class symbols; read-out: KRAS G12S FRET data IC50
Method in brief: as §1

[6] = system: NCI-H358 cells (K-Ras G12C); test: Potency assay: pERK in NCI-H358 cells; format: cell-based, human; conditions: Homo sapiens, NCI-H358; H358 KRAS G12C; read-out: pERK EC50
Method in brief: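 Inhibition of cellular pERK after a 4 h treatment, detected by AlphaLISA or In-Cell Western. IC50 from a four-parameter concentration-response fit.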

[7] = biological target: NRAS G12C (Homo sapiens (Human), UniProt P01111+P62937, G12C); test: Ras-Raf (BRAF RBD) disruption / FRET / MOA assay, NRAS G12C; format: biochemical; conditions: read-out: IC50* NRAS G12C FRET data
Description: as §2, §3
This protocol may also be executed substituting other Ras proteins or nucleotides. […]

[8] = biological target: K-Ras G12C (Homo sapiens (Human), UniProt P01116+P62937, G12C); test: Ras-Raf (BRAF RBD) disruption / FRET / MOA assay, KRAS G12C; format: biochemical; conditions: KRAS G12C; Ras-Raf disruption/FRET/MOA assay; read-out: IC50* KRAS G12C FRET data
Description: as §2, §3, §4, §5
as §3, with “Compound was” for “Compound is”, “allophycocyanin was” for “allophycocyanin is”, “a K-Ras:RAF” for “a Ras:RAF”, “complex were” for “complex are”

[9] = biological target: KRAS G13D (Homo sapiens (Human), UniProt P01116+P62937, G13D); test: Ras-Raf (BRAF RBD) disruption / FRET / MOA assay, KRAS G13D; format: biochemical; conditions: read-out: IC50* KRAS G13D FRET data
Description: as §2, §3, §4, §5
as §3, with “Compound was” for “Compound is”, “allophycocyanin was” for “allophycocyanin is”, “a K-Ras:RAF” for “a Ras:RAF”, “complex were” for “complex are”

K-Ras G13C, sequence (P01116-2 other isoform, or with tags, fused parts or gaps G13C): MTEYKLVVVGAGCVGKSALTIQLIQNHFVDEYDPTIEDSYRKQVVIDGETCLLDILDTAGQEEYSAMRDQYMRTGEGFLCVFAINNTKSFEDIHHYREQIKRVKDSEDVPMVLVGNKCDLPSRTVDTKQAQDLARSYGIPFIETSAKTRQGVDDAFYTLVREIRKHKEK
K-Ras G13C, sequence (P62937 whole entry): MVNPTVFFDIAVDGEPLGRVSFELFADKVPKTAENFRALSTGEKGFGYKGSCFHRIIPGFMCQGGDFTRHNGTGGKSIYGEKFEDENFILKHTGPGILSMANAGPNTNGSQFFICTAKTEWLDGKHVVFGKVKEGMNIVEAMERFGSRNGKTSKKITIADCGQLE
KRAS G12V, sequence (P01116-2 other isoform, or with tags, fused parts or gaps G12V): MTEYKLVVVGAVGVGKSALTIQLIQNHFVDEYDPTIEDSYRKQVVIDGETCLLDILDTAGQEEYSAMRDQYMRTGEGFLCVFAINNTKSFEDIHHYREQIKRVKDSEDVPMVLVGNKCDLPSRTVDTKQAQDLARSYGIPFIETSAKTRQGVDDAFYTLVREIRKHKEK
KRAS G12V, sequence (P62937 whole entry): as the sequence (P62937 whole entry) above
KRAS WT, sequence (P01116-2 other isoform, or with tags, fused parts or gaps): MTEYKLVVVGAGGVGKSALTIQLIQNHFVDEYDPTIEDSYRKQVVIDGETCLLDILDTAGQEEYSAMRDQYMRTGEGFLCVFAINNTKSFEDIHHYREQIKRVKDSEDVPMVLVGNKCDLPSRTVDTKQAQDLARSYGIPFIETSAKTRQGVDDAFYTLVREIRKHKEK
KRAS WT, sequence (P62937 whole entry, canonical isoform): as the sequence (P62937 whole entry) above
K-Ras G12C, sequence (P01116-2 other isoform, or with tags, fused parts or gaps G12C): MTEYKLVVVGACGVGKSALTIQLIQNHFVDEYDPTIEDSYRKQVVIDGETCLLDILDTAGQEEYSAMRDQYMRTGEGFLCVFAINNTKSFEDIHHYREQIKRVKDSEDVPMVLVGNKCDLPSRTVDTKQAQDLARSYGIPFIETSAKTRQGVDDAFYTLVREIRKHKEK
K-Ras G12C, sequence (P62937 whole entry): as the sequence (P62937 whole entry) above
KRAS G12D, sequence (P01116-2 other isoform, or with tags, fused parts or gaps G12D): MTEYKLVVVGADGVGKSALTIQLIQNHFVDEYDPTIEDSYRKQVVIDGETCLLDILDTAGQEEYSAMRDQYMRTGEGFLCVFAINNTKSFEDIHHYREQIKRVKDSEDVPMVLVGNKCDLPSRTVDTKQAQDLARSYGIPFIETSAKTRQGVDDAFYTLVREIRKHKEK
KRAS G12D, sequence (P62937 whole entry): as the sequence (P62937 whole entry) above
KRAS G13D, sequence (P01116-2 other isoform, or with tags, fused parts or gaps G13D): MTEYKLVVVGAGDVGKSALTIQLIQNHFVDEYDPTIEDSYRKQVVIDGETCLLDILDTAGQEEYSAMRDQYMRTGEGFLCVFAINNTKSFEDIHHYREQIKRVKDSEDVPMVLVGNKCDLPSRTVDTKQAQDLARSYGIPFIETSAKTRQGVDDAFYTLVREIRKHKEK
KRAS G13D, sequence (P62937 whole entry): as the sequence (P62937 whole entry) above
NRAS G12C, sequence (P01111 whole entry G12C): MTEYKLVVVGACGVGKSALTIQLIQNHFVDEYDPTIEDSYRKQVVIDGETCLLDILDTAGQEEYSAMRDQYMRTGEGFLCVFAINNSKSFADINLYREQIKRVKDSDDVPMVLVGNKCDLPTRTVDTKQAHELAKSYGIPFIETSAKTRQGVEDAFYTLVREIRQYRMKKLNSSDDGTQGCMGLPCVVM
NRAS G12C, sequence (P62937 whole entry): as the sequence (P62937 whole entry) above
KRAS G12S, sequence (P01116-2 other isoform, or with tags, fused parts or gaps G12S): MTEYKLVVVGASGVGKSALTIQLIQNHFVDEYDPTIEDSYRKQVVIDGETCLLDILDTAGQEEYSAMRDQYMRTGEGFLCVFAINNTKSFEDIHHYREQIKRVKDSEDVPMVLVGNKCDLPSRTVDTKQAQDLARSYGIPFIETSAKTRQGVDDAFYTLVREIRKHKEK
KRAS G12S, sequence (P62937 whole entry): as the sequence (P62937 whole entry) above

| Structure (SMILES) | IC50 [1] | IC50 [2] | IC50 [3] | IC50 [4] | IC50 [5] | EC50 [6] [nM] | IC50 [7] | IC50 [8] | IC50 [9] |
| --- | --- | --- | --- | --- | --- | --- | --- | --- | --- |
| CCn1c(-c2cnccc2COC)c2c3cc(ccc31)-c1cccc(c1)C[C@H](NC(=O)[C@H](C(C)C)N(C)C(=O)[C@H]1CCN(C(=O)C#CCN(C)C)C1)C(=O)N1CCC[C@H](N1)C(=O)OCC(C)(C)C2 (atropisomer, axis not shown) [Example A120] | 1000 to 10000 nM | 1000 to 10000 nM and > 10000 nM | 1000 to 10000 nM and > 10000 nM | 100 to 1000 nM and 1000 to 10000 nM | 1000 to 10000 nM and > 10000 nM | < 5000 | 100 to 1000 nM and < 10 nM | 100 to 1000 nM and < 10 nM | 1000 to 10000 nM |
| CCn1c(-c2cccnc2[C@H](C)OC)c2c3cc(ccc31)-c1cccc(c1)C[C@H](NC(=O)[C@H](C(C)C)N(C)C(=O)[C@H]1CCN(C(=O)C#CCN3CCOCC3)C1)C(=O)N1CCC[C@H](N1)C(=O)OCC(C)(C)C2 (atropisomer, axis not shown) [Example A191] | > 10000 nM | > 10000 nM | 1000 to 10000 nM and > 10000 nM | 1000 to 10000 nM and > 10000 nM | > 10000 nM | < 5000 | 10 to 100 nM and 1000 to 10000 nM | 10 to 100 nM and 100 to 1000 nM | > 10000 nM |
| C=CC(=O)N1CC[C@H](C(=O)N(C)[C@H](C(=O)N[C@H]2Cc3cc(O)cc(c3)-c3ccc4c(c3)c(c(-c3cccnc3[C@@H](OC)C3CC3)n4CC)CC(C)(C)COC(=O)[C@@H]3CCCN(N3)C2=O)C(C)C)C1 (atropisomer, axis not shown) [Example A206] | > 10000 nM | 1000 to 10000 nM | 100 to 1000 nM | 1000 to 10000 nM | 100 to 1000 nM | < 5000 | 100 to 1000 nM | 100 to 1000 nM | 1000 to 10000 nM |

The remaining lines, values ahead:

| IC50 [1] | IC50 [2] | IC50 [3] | IC50 [4] | IC50 [5] | EC50 [6] [nM] | IC50 [7] | IC50 [8] | IC50 [9] | Structure (SMILES) |
| --- | --- | --- | --- | --- | --- | --- | --- | --- | --- |
| 1000 to 10000 nM and 10 to 100 nM | 1000 to 10000 nM and 10 to 100 nM | 100 to 1000 nM and 10 to 100 nM | 10 to 100 nM and 1000 to 10000 nM | 1000 to 10000 nM and 10 to 100 nM | < 5000 | 10 to 100 nM and < 10 nM | 10 to 100 nM and < 10 nM | 1000 to 10000 nM and 10 to 100 nM | CCn1c(-c2cccnc2[C@H](C)OC)c2c3cc(ccc31)-c1cc(O)cc(c1)C[C@H](NC(=O)[C@H](C(C)C)N(C)C(=O)[C@H]1CCN(C(=O)/C=C/CN(C)C)C1)C(=O)N1CCC[C@H](N1)C(=O)OCC(C)(C)C2 (atropisomer, axis not shown) [Example A183] |
| > 10000 nM and 100 to 1000 nM | 100 to 1000 nM and > 10000 nM | 1000 to 10000 nM and 10 to 100 nM | 100 to 1000 nM and > 10000 nM | 1000 to 10000 nM and 10 to 100 nM | < 5000 | 100 to 1000 nM and < 10 nM | 100 to 1000 nM and < 10 nM | 100 to 1000 nM and > 10000 nM | CCn1c(-c2cccnc2[C@H](C)OC)c2c3cc(ccc31)-c1cc(O)cc(c1)C[C@H](NC(=O)[C@H](C(C)C)N(C)C(=O)[C@H]1CCN(C(=O)/C=C/CN3CCOCC3)C1)C(=O)N1CCC[C@H](N1)C(=O)OCC(C)(C)C2 (atropisomer, axis not shown) [Example A184] |
| > 10000 nM | 1000 to 10000 nM and > 10000 nM | 1000 to 10000 nM and > 10000 nM | > 10000 nM and 1000 to 10000 nM | 1000 to 10000 nM and > 10000 nM | < 5000 | 10 to 100 nM and 1000 to 10000 nM | 10 to 100 nM and 1000 to 10000 nM | 1000 to 10000 nM and > 10000 nM | CCn1c(-c2cccnc2[C@H](C)OC)c2c3cc(ccc31)-c1cccc(c1)C[C@H](NC(=O)[C@H](C(C)C)N(C)C(=O)[C@H]1CCN(C(=O)/C=C/CN(C)C)C1)C(=O)N1CCC[C@H](N1)C(=O)OCC(C)(C)C2 (atropisomer, axis not shown) [Example A187] |
